Data from patent US20150018411A1, “COMPOUNDS AS PPAR BETA/DELTA INHIBITORS FOR TREATING PPAR BETA/DELTA-MEDIATED DISEASES” (PHILIPPS-UNIVERSITAT MARBURG, priority 2011, published 2015).

Columns and labels:
[1] = tested on: ANGPTL4 gene expression; assay: Stimulus-induced ANGPTL4 expression in human fibroblasts; format: cell-based
[2] = target: T1, GST-PPAR beta/delta LBD (Homo sapiens, UniProt Q03181); assay: Inhibition of agonist L165041-induced recruitment of co-activator peptide C33, TR-FRET; format: biochemical; settings: 1 μM test substance, increasing concentrations of agonist L165041
T1 construct: GST-PPAR beta/delta LBD (GST=glutathione S-transferase); purchased Invitrogen, Darmstadt, Germany
T1 sequence (Q03181 211-439 limits assumed): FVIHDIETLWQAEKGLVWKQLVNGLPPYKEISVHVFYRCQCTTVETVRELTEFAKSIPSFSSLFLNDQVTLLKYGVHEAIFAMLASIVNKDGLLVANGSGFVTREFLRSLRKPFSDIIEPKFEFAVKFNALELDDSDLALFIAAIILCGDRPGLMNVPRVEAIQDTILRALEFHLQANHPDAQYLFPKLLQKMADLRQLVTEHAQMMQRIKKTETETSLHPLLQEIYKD
Method: FIG. 3: Inhibition of agonist-induced co-activator peptide binding (A) and inverse agonist compound 1-induced corepressor peptide binding (B) by the substance of this invention compound 5. • The recruitment of the co-activator or corepressor peptide, respectively, is determined in a TR-FRET assay. As co-activator peptide, C33 is utilized, as corepressor peptide SMRT-ID2. The experiment is performed with a constant concentration of 1 μM of the substance of this invention compound 5 and increasing concentrations of the agonist L165041 (A) or the inverse agonist compound 1 (B), respectively.
C) The inhibition of the recruitment of co-activator peptide C33 known to the expert in this field mediated by PPAR beta/delta agonist L165,041 or the inhibition of the inverse agonist inventive compound 1-mediated binding of the corepressor peptide SMRT-ID2 to GST-PPAR beta/delta LBD by the substance of this invention compound 5 (1 μM) was also determined by TR-FRET measurements. Both is shown in FIGS. 3 A and B in dependency of the concentration of the agonist (A) and the inverse agonist (B), respectively.

inhibition of agonist-induced recruitment of co-activator peptide C33 [2] | Structure (SMILES) | induction of ANGPTL4 expression by TGF-beta1, TGF-beta2, dexamethasone or TPA [1]
– | CCCCCCNc1ccc(NS(=O)(=O)c2ccsc2C(=O)OC)c(OC)c1 [compound 1, methyl 3-(N-(4-(hexylamino)-2-methoxyphenyl)sulfamoyl)thiophene-2-carboxylate] | significantly be reduced
prevents | COC(=O)c1sccc1S(=O)(=O)Nc1ccc(NC(C)(C)C)cc1OC [compound 5, methyl 3-(N-(4-(tert-butylamino)-2-methoxyphenyl)sulfamoyl)thiophene-2-carboxylate] | –
